Test results taken from ChEMBL document CHEMBL1131830, “Total synthesis of the potent proteasome inhibitor epoxomicin: a useful tool for understanding proteasome biology” (Bioorg Med Chem Lett, 1999).

Test system: Proteasome
Assay: Inhibitory activity against 20S proteosome
Type: subcellular

## CC[C@H](C)[C@H](NC(=O)[C@H]([C@@H](C)CC)N(C)C(C)=O)C(=O)N[C@H](C(=O)N[C@@H](CC(C)C)C(=O)[C@@]1(C)CO1)[C@@H](C)O
  k obs / 1: 37200 M⁻¹ s⁻¹

## CC[C@@H](C)[C@H](NC(=O)[C@H]([C@@H](C)CC)N(C)C(C)=O)C(=O)N[C@H](C(=O)N[C@@H](CC(C)C)C(=O)[C@@]1(C)CO1)[C@@H](C)O
  k obs / 1: 246 M⁻¹ s⁻¹
